The values below come from patent US10919916B2, “Boron-containing small molecules” (Bill & Melinda Gates Foundation, priority 2016, dated 2021).

Broadly, the MIC is the lowest concentration that inhibits growth of the organism.

In brackets after ≈: the same amount, converted by molar mass. Where a name gives a salt, the structure may show the parent alone. Read-outs that look alike come from different tables or passages of the source. Some results are limits rather than exact numbers.

Experiment [1] concerns Streptococcus pneumoniae (ATCC 49619). Put plainly: Antibacterial MIC assay (microbroth dilution, CLSI). Format: cell-based. The method, boiled down: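 S. pneumoniae at 5×10^5 CFU/mL (from 0.5 McFarland saline suspension) was tested against 2-fold serial compound dilutions in cation-adjusted Mueller-Hinton broth plus 3% lysed horse blood, per CLSI M07-A10/M100-S25 microdilution guidelines.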
Background: Dilution methods test growth across graded concentrations, often in twofold steps.

Experiment [2] has as its system Staphylococcus aureus, MRSA (ATCC 33591). The experiment is described as above. In kind it is cell-based. As to conditions: read-out: MIC Staphylococcus aureus, MRSA (ATCC 33591). The method, boiled down: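 Compound 2-fold dilution series tested against 5×10^5 CFU/mL bacteria prepared from 0.5 McFarland saline suspensions of overnight colonies. Medium was cation-adjusted Mueller-Hinton broth, supplemented with 3% lysed horse blood for the fastidious pneumococcus. Protocol followed CLSI M07-A10 and M100-S25.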

Setting [3] is: ATCC49619, read-out: MIC Streptococcus pneumoniae (ATCC 49619).
[4] abbreviates: ATCC49619, microbroth dilution, 3% lysed horse blood, 35° C. for 16-20 hours, read-out: MIC Streptococcus pneumoniae (ATCC 49619).
Where [5] appears, read: microbroth dilution, cation-adjusted Mueller-Hinton broth, 35° C. for 16-20 hours.

As to `C=C[C@]1(C)C[C@@H](OC(=O)CNc2cc(CN)c3c(c2)B(O)OC3)[C@]2(C)[C@H](C)CC[C@]3(CCC(=O)[C@H]32)[C@@H](C)[C@@H]1O` [Compound 50, (3aR,4R,5R,7S,8S,9R,9aS,12R)-8-hydroxy-4,7,9,12-tetramethyl-3-oxo-7-vinyldecahydro-4,9a-propanocyclopenta[8]annulen-5-yl (4-(aminomethyl)-1-hydroxy-1,3-dihydrobenzo[c][1,2]oxaborol-6-yl)glycinate], the MIC in experiment [1] (setting [3]) is less than 0.25 µg/mL; in experiment [2] it was 0.5 to 2 µg/mL (≈ 0.929 to 3.71 µM).
The matching figures for `C=C[C@]1(C)C[C@@H](OC(=O)CNc2ccc3c(c2)B(O)OC3CN)[C@]2(C)[C@H](C)CC[C@]3(CCC(=O)[C@H]32)[C@@H](C)[C@@H]1O` (stereo partly drawn) [Compound 52, (3aR,4R,5R,7S,8S,9R,9aS,12R)-8-hydroxy-4,7,9,12-tetramethyl-3-oxo-7-vinyldecahydro-4,9a-propanocyclopenta[8]annulen-5-yl (3-(aminomethyl)-1-hydroxy-1,3-dihydrobenzo[c][1,2]oxaborol-6-yl)glycinate]: 0.5 to 2 µg/mL (≈ 0.929 to 3.71 µM) and 0.5 to 2 µg/mL (≈ 0.929 to 3.71 µM).
Turning to `C=C[C@]1(C)C[C@@H](OC(=O)COc2cc3c(cc2C)COB3O)[C@]2(C)[C@H](C)CC[C@]3(CCC(=O)[C@H]32)[C@@H](C)[C@@H]1O` [Compound 10, (3aR,4R,5R,7S,8S,9R,9aS,12R)-8-hydroxy-4,7,9,12-tetramethyl-3-oxo-7-vinyldecahydro-4,9a-propanocyclopenta[8]annulen-5-yl 2-((1-hydroxy-5-methyl-1,3-dihydrobenzo[c][1,2]oxaborol-6-yl)oxy)acetate], the MIC in experiment [1] (setting [4]) and in experiment [2] (setting [5]) was less than 0.25 µg/mL throughout.
Take `C=C[C@]1(C)C[C@@H](OC(=O)C[S@+]([O-])c2ccc3c(c2F)B(O)OC3)[C@]2(C)[C@H](C)CC[C@]3(CCC(=O)[C@H]32)[C@@H](C)[C@@H]1O` [Compound 66, (3aR,4R,5R,7S,8S,9R,9aS,12R)-8-hydroxy-4,7,9,12-tetramethyl-3-oxo-7-vinyldecahydro-4,9a-propanocyclopenta[8]annulen-5-yl 2-((S)-(7-fluoro-1-hydroxy-1,3-dihydrobenzo[c][1,2]oxaborol-6-yl)sulfinyl)acetate]: the MIC in experiment [1] (setting [3]) lay within 4 to 32 µg/mL (≈ 7.14 to 57.1 µM); in experiment [2], 0.5 to 2 µg/mL (≈ 0.892 to 3.57 µM).
In the case of `C=C[C@]1(C)C[C@@H](OC(=O)COc2cc3c(cc2F)B(O)OC3)[C@]2(C)[C@H](C)CC[C@]3(CCC(=O)[C@H]32)[C@@H](C)[C@@H]1O` [Compound 34, (3aR,4R,5R,7S,8S,9R,9aS,12R)-8-hydroxy-4,7,9,12-tetramethyl-3-oxo-7-vinyldecahydro-4,9a-propanocyclopenta[8]annulen-5-yl 2-((6-fluoro-1-hydroxy-1,3-dihydrobenzo[c][1,2]oxaborol-5-yl)oxy)acetate], the MIC in experiment [1] (setting [3]) was 0.5 to 2 µg/mL (≈ 0.946 to 3.78 µM); in experiment [2] it was less than 0.25 µg/mL.
Turning to `C=C[C@]1(C)C[C@@H](OC(=O)COc2ccc3c(c2)B(O)OC3C)[C@]2(C)[C@H](C)CC[C@]3(CCC(=O)[C@H]32)[C@@H](C)[C@@H]1O` (stereo partly drawn) [Compound 19, (3aR,4R,5R,7S,8S,9R,9aS,12R)-8-hydroxy-4,7,9,12-tetramethyl-3-oxo-7-vinyldecahydro-4,9a-propanocyclopenta[8]annulen-5-yl 2-((1-hydroxy-3-methyl-1,3-dihydrobenzo[c][1,2]oxaborol-6-yl)oxy)acetate], the MIC in experiment [1] (setting [3]) was 0.5 to 2 µg/mL (≈ 0.953 to 3.81 µM); in experiment [2], less than 0.25 µg/mL.
In the same order, the values of `C=C[C@]1(C)C[C@@H](OC(=O)COc2ccc3c(c2Cl)B(O)OC3CN)[C@]2(C)[C@H](C)CC[C@]3(CCC(=O)[C@H]32)[C@@H](C)[C@@H]1O` (stereo partly drawn) [Compound 31, (3aR,4R,5R,7S,8S,9R,9aS,12R)-8-hydroxy-4,7,9,12-tetramethyl-3-oxo-7-vinyldecahydro-4,9a-propanocyclopenta[8]annulen-5-yl 2-((3-(aminomethyl)-7-chloro-1-hydroxy-1,3-dihydrobenzo[c][1,2]oxaborol-6-yl)oxy)acetate Hydrochloride] are 0.5 to 2 µg/mL and 0.5 to 2 µg/mL.
Turning to `C=C[C@]1(C)C[C@@H](OC(=O)CSc2ccc3c(c2)B(O)OC3)[C@]2(C)[C@H](C)CC[C@]3(CCC(=O)[C@H]32)[C@@H](C)[C@@H]1O` [Compound 61, (3aR,4R,5R,7S,8S,9R,9aS,12R)-8-hydroxy-4,7,9,12-tetramethyl-3-oxo-7-vinyldecahydro-4,9a-propanocyclopenta[8]annulen-5-yl 2-((1-hydroxy-1,3-dihydrobenzo[c][1,2]oxaborol-6-yl)thio)acetate], the MIC in experiment [1] (setting [3]) and in experiment [2] was less than 0.25 µg/mL throughout.
As for `C=C[C@]1(C)C[C@@H](OC(=O)COc2ccc3c(c2C)B(O)OC3)[C@]2(C)[C@H](C)CC[C@]3(CCC(=O)[C@H]32)[C@@H](C)[C@@H]1O` [Compound 9, (3aR,4R,5R,7S,8S,9R,9aS,12R)-8-hydroxy-4,7,9,12-tetramethyl-3-oxo-7-vinyldecahydro-4,9a-propanocyclopenta[8]annulen-5-yl2-((1-hydroxy-7-methyl-1,3-dihydrobenzo[c][1,2]oxaborol-6-yl)oxy)acetate], the MIC is 0.5 to 2 µg/mL (≈ 0.953 to 3.81 µM) in experiment [1] (setting [3]) and less than 0.25 µg/mL in experiment [2].
`C=C[C@]1(C)C[C@@H](OC(=O)COc2ccc3c(c2F)B(O)OC3CN)[C@]2(C)[C@H](C)CC[C@]3(CCC(=O)[C@H]32)[C@@H](C)[C@@H]1O.Cl` (stereo partly drawn) [Compound 29, (3aR,4R,5R,7S,8S,9R,9aS,12R)-8-hydroxy-4,7,9,12-tetramethyl-3-oxo-7-vinyldecahydro-4,9a-propanocyclopenta[8]annulen-5-yl 2-((3-(aminomethyl)-7-fluoro-1-hydroxy-1,3-dihydrobenzo[c][1,2]oxaborol-6-yl)oxy)acetate Hydrochloride]: the MIC in experiment [1] (setting [4]) and in experiment [2] (setting [5]) was 0.5 to 2 µg/mL each time.
As to `C=C[C@]1(C)C[C@@H](OC(=O)COC(=O)Nc2ccc3c(c2F)B(O)OC3)[C@]2(C)[C@H](C)CC[C@]3(CCC(=O)[C@H]32)[C@@H](C)[C@@H]1O` [Compound 55, (3aR,4R,5R,7S,8S,9R,9aS,12R)-8-hydroxy-4,7,9,12-tetramethyl-3-oxo-7-vinyldecahydro-4,9a-propanocyclopenta[8]annulen-5-yl 2-(((7-fluoro-1-hydroxy-1,3-dihydrobenzo[c][1,2]oxaborol-6-yl)carbamoyl)oxy)acetate], the minimal inhibitory concentration (MIC) in experiment [1] (setting [3]) and in experiment [2] was 0.5 to 2 µg/mL (≈ 0.875 to 3.5 µM) in each case.
Regarding `C=C[C@]1(C)C[C@@H](OC(=O)COc2ccc3c(c2)B(O)OC3CN)[C@]2(C)[C@H](C)CC[C@]3(CCC(=O)[C@H]32)[C@@H](C)[C@@H]1O.Cl` (stereo partly drawn) [Compound 21, (3aR,4R,5R,7S,8S,9R,9aS,12R)-8-hydroxy-4,7,9,12-tetramethyl-3-oxo-7-vinyldecahydro-4,9a-propanocyclopenta[8]annulen-5-yl 2-((3-(aminomethyl)-1-hydroxy-1,3-dihydrobenzo[c][1,2]oxaborol-6-yl)oxy)acetate Hydrochloride], the minimal inhibitory concentration (MIC) in experiment [1] (setting [3]) was less than 0.25 µg/mL; in experiment [2] (setting [5]), 0.5 to 2 µg/mL.
Consider `C=C[C@]1(C)C[C@@H](OC(=O)CNc2ccc3c(c2)B(O)OC3(C)C)[C@]2(C)[C@H](C)CC[C@]3(CCC(=O)[C@H]32)[C@@H](C)[C@@H]1O` [Compound 51, (3aR,4R,5R,7S,8S,9R,9aS,12R)-8-hydroxy-4,7,9,12-tetramethyl-3-oxo-7-vinyldecahydro-4,9a-propanocyclopenta[8]annulen-5-yl (1-hydroxy-3,3-dimethyl-1,3-dihydrobenzo[c][1,2]oxaborol-6-yl)glycinate], for which the MIC in experiment [1] (setting [3]) is 0.5 to 2 µg/mL (≈ 0.93 to 3.72 µM); in experiment [2], less than 0.25 µg/mL.
